Results as given in US9314506B2, “Methods for increasing insulin secretion by co-stimulation of corticotropin-releasing factor receptors” (Research Development Foundation, priority 2011, dated 2016).

Legend:
[1] = test system: Human islets; test: Insulin secretion from cultured human islets (insulin ELISA); type: cell-based; settings: FIG. 1; for Insulin secretion, single agonist: human islets, 60 min stimulation with glucose and peptide, single CRF receptor agonist added
Protocol: Human islets were handpicked twice and cultured overnight in CMRL-1066 medium (Invitrogen™) supplemented with 10% fetal bovine serum (FBS) and penicillin/streptomycin at 37° C., 5% CO2. Islets were starved in RPMI 1640 medium supplemented with 1.4 mM glucose and 0.1% BSA for 60 min and then were transferred into 1.2 mL of medium (RPMI 1640 supplemented with 2.8 mM glucose, 0.1% BSA) in 24-well plates at 100 islets/well. After 60 min, 600 μL of medium was collected for the determination of basal insulin release, and then islets were stimulated for 60 min with glucose and peptide as indicated in RPMI 1640 containing 0.1% BSA. Samples were diluted 20 times in RPMI 1640 with 0.1% BSA and were stored at −20° C. until determination of insulin concentrations with an insulin ELISA kit (Mercodia AB).
Peptides used in the studies were ovine CRF (oCRF), a selective CRF-R1 agonist; human Urocortin 3 (hUcn 3), a selective CRF-R2 agonist; antalarmin, a selective CRF-R1 antagonist; and astressin2-B, a selective CRF-R2 antagonist. […] Insulin secretion was enhanced by addition of either a CRF1 receptor agonist (oCRF) or a CRF2 receptor agonist (hUcn 3). […] The synergistic enhancement was inhibited by the addition of either a CRF1 receptor antagonist (antalarmin) or a CRF2 receptor antagonist (astressin2-B) to the cells (FIG. 1).

[2] = test system: pancreatic beta cell mass; test: Beta cell mass in doxycycline-inducible, beta cell-specific Ucn 1 transgenic mice; type: in vivo; settings: bitransgenic mouse, doxycycline for 6 weeks (21 days to 9 weeks of age), vs single transgenic controls on dox or bitransgenic without dox; FIG. 5
Excerpt: A transgenic mouse model that features beta cell-specific, doxycycline-inducible expression of Ucn 1 was generated by routine transgenic techniques. Single transgenic mice were obtained comprising either an expressible tetracycline transactivator (tTA) protein under the control of a pancreas-specific Insulin2 promoter (Jax Stock#008250 STOCK Tg(Ins2-rtTA)2Efr/J) or expressible Ucn1 under the control of a tTA protein-activated promoter (see, e.g., Sun et al., 2007 and Mallo, 2006). Single transgenic mice were crossed to generate the bitransgenic mice referenced in the studies. Thus, transgenic Ucn 1 expression in beta cells requires the presence of two transgenic cassettes as well as the administration of doxycycline. […] Bitransgenic animals, along with single transgenic controls, were administered doxycyline continuously as indicated from 21 days until 9 weeks of age. […] Sections were mounted in fluorescence mounting media containing dapi counterstain. Each section was scanned and the total pancreas surface area (based on the dapi counterstain) and the total beta cell surface area (based on the insulin-Cy3 stain) were quantified using standard morphometry techniques using Metamorph software. Beta cell area in each animal was expressed as the insulin+ surface area as a percentage of the total surface area (FIG. 5).

Molecule	Insulin secretion, single agonist [1]	also measured
oCRF: ovine CRF, a selective CRF-R1 agonist (SQEPPISLDLTFHLLREVLEMTKADQLAQQAHSNRKLLDIA)	enhanced	
hUcn 3: human Urocortin 3, a selective CRF-R2 agonist (FTLSLDVPTNIMNLLFNIAKAKNLRAQAAANAHLMAQI)	enhanced	
CCCCN(CC)c1nc(C)nc2c1c(C)c(C)n2-c1c(C)cc(C)cc1C [antalarmin]		Effect of antagonist on the synergistic enhancement of insulin secretion ([1]; human islets co-stimulated with CRF1 and CRF2 receptor agonists, antagonist added): inhibited
Ucn 1: Urocortin 1, agonist of both CRF1 and CRF2 receptors, expressed transgenically in mouse beta cells under doxycycline control (protein, listed as Homo sapiens) MRQAGRAALLAALLLLVQLCPGSSQRSPEAAGVQDPSLRWSPGARNQGGGARALLLLLAERFPRRAGPGRLGLGTAGERPRRDNPSLSIDLTFHLLRTLLELARTQSQRERAEQNRIIFDSVGK		Beta cell mass (insulin+ surface area as a percentage of total pancreas surface area) [2]: robust increase
